Source: US11498930B2 (BLUERAY THERAPEUTICS (SHANGHAI) CO., LTD., priority 2018, dated 2022)

How the values were obtained:
SHP2^E76A protein = SHP2^E76A protein (Homo sapiens (Human), UniProt Q06124, E76A); experiment: SHP2 enzyme activity inhibition experiment; type: biochemical; conditions: SHP2 enzyme activity, Tables 1.1 and 1.2; read-out: IC50
Protocol: Compound powders were dissolved in DMSO to prepare mother liquor.
During the experiment, the stock solutions of the compounds were subjected to 3-fold gradient dilution with DMSO, and 10 different test concentrations of each compound were set. […] The protein used was the activated protein SHP^2E76A with amino acid mutation at position 76 of the protein, and the substrate used was DiFMUP (Invitrogen, E12020). […] 50 µL of enzyme solution was added to the detection wells, followed by 50 µL of substrate. […] GraphPad Prism 5 was used for nonlinear regression analysis, and the curve of enzyme activity versus compound concentration was fitted by the equation Y=Bottom+(Top-Bottom)/(1+10^((Log IC50−X)*HillSlope)) to calculate the IC50 value of each compound.

MOLM-13 cells = experiment: MOLM-13 cell proliferation experiment; type: cell-based; conditions: Homo sapiens, MOLM-13, 72 h, MOLM-13 cell proliferation, 3 days, Tables 3.1 and 3.2; read-out: IC50
Protocol: After 3 days, 5 µL of CellTiter-Glo reagent (Promega, ZG7572) was added to each well, and the plates were kept at room temperature in the dark for 10 minutes. The […] was detected by Spectra max i3 (Molecular Devices). The relative growth rate of the treated cells was compared with that of DMSO control.

Chain of SHP2^E76A protein (Q06124 whole entry E76A): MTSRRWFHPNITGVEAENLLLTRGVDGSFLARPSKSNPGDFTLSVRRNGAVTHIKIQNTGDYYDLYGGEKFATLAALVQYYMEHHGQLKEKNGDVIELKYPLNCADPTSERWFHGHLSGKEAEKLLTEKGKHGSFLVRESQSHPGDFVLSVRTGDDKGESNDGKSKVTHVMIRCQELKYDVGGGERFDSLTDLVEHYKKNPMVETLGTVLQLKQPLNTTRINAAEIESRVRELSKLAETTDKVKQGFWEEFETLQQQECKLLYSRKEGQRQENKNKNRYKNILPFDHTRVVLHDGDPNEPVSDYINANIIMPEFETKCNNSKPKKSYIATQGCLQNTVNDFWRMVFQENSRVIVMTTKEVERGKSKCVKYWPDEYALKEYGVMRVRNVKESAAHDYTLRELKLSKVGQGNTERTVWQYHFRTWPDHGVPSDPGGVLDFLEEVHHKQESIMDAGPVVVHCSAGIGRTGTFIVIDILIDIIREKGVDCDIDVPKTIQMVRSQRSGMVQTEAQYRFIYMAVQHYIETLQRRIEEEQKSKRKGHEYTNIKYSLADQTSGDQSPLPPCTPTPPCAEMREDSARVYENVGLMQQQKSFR

SMILES	IC50 (SHP2^E76A protein) [µM]	IC50 (MOLM-13 cells) [µM]
NC1CCCCC12CCN(c1ncc(Sc3cccc(Cl)c3Cl)c3ncnn13)CC2 (centres unmarked)	0.1 to 1	1 to 10
C[C@@H]1OCC2(CCN(c3ncc(Sc4cc(N)ncc4Cl)c4nncn34)CC2)[C@@H]1N	< 0.1	1 to 10
C[C@@H]1OCC2(CCN(c3ncc(Sc4cc(N)ncc4Cl)c4nccn34)CC2)[C@@H]1N	–	0.1 to 1
N[C@@H]1CCCC12CCN(c1ncc(Sc3cccnc3Cl)c3ncnn13)CC2	0.1 to 1	1 to 10
COc1ccccc1Sc1cnc(N2CCC3(CCC[C@H]3N)CC2)n2ncnc12	–	1 to 10
Cc1ncccc1Sc1cnc(N2CCC3(CCC[C@H]3N)CC2)n2cnnc12	–	1 to 10
Cc1ncccc1Sc1cnc(N2CCC3(CCC[C@H]3N)CC2)n2ccnc12	–	0.1 to 1
CN(C)C(=O)C(=O)Nc1cccc(Sc2cnc(N3CCC4(CCC[C@H]4N)CC3)n3ccnc23)c1Cl	–	0.1 to 1
NC1CCCN(c2ncc(Sc3cccc(Cl)c3Cl)c3ncnn23)CC1 (centres unmarked) [1-(8-((2,3-dichlorophenyl)thio)-[1,2,4]triazolo[1,5-c]pyrimidin-5-yl)azepan-4-amine]	0.1 to 1	1 to 10
CC1(N)CCN(c2ncc(Sc3cccc(Cl)c3Cl)c3nccn23)CC1 [1-(8-((2,3-dichlorophenyl)thio)imidazo[1,2-c]pyrimidin-5-yl)-4-methylpiperidin-4-amine]	0.1 to 1	0.1 to 1
NCC1(c2ccccc2)CCN(c2ncc(Sc3cccc(Cl)c3Cl)c3nncn23)CC1 [(1-(8-((2,3-dichlorophenyl)thio)-[1,2,4]triazolo[4,3-c]pyrimidin-5-yl)-4-phenylpiperidin-4-yl)methanamine]	< 0.1	0.1 to 1
CC1(CN)CCN(c2ncc(Sc3cccc(Cl)c3Cl)c3nccn23)CC1 [(1-(8-((2,3-dichlorophenyl)thio)imidazo[1,2-c]pyrimidin-5-yl)-4-methylpiperidin-4-yl)methanamine]	< 0.1	0.1 to 1
CC1C[C@@H](N)C2(CCN(c3ncc(Sc4ccnc(Cl)c4Cl)c4nncn34)CC2)C1 (stereo partly drawn) [(1R)-8-(8-((2,3-dichloropyridin-4-yl)thio)-[1,2,4]triazolo[4,3-c]pyrimidin-5-yl)-3-methyl-8-azaspiro[4.5]decan-1-amine]	< 0.1	0.1 to 1
CC1C[C@@H](N)C2(CCN(c3ncc(Sc4ccnc(N)c4Cl)c4nncn34)CC2)C1 (stereo partly drawn) [(1R)-8-(8-((2-amino-3-chloropyridin-4-yl)thio)-[1,2,4]triazolo[4,3-c]pyrimidin-5-yl)-3-methyl-8-azaspiro[4.5]decan-1-amine]	< 0.1	0.1 to 1
CC1C[C@@H](N)C2(CCN(c3ncc(Sc4cc(N)nc(Cl)c4Cl)c4nccn34)CC2)C1 (stereo partly drawn) [(1R)-8-(8-((6-amino-2,3-dichloropyridin-4-yl)thio)imidazo[1,2-c]pyrimidin-5-yl)-3-methyl-8-azaspiro[4.5]decan-1-amine]	< 0.1	< 0.1
Cc1nccc(Sc2cnc(N3CCC4(CC3)CO[C@@H](C)[C@H]4N)n3ncnc23)c1Cl [(3S,4S)-8-(8-((3-chloro-2-methylpyridin-4-yl)thio)-[1,2,4]triazolo[1,5-c]pyrimidin-5-yl)-3-methyl-2-oxa-8-azaspiro[4.5]decan-4-amine]	0.1 to 1	1 to 10
C[C@@H]1OCC2(CCN(c3ncc(Sc4cc(N)nc(Cl)c4Cl)c4nncn34)CC2)[C@@H]1N [(3S,4S)-8-(8-((6-amino-2,3-dichloropyridin-4-yl)thio)-[1,2,4]triazolo[4,3-c]pyrimidin-5-yl)-3-methyl-2-oxa-8-azaspiro[4.5]decan-4-amine]	< 0.1	0.1 to 1
N[C@@H]1CCCN(c2ncc(Sc3cccc(Cl)c3Cl)c3nncn23)CC1 [(R)-1-(8-((2,3-dichlorophenyl)thio)-[1,2,4]triazolo[4,3-c]pyrimidin-5-yl)azepan-4-amine]	0.1 to 1	1 to 10
N[C@@H]1CCCC12CCN(c1ncc(Sc3cccc(Cl)c3Cl)c3nncn13)CC2 [(R)-8-(8-((2,3-dichlorophenyl)thio)-[1,2,4]triazolo[4,3-c]pyrimidin-5-yl)-8-azaspiro[4.5]decan-1-amine]	< 0.1	0.1 to 1
Cc1ncccc1Sc1cnc(N2CCC3(CCC[C@H]3N)CC2)n2ccnc12 [(R)-8-(8-((2-methylpyridin-3-yl)thio)imidazo[1,2-c]pyrimidin-5-yl)-8-azaspiro[4.5]decan-1-amine]	< 0.1	–

SMILES	IC50 (SHP2^E76A protein) [µM]	IC50 (MOLM-13 cells) [µM]
N[C@@H]1CCCC12CCN(c1ncc(Sc3ccncc3C(F)(F)F)c3ncnn13)CC2 [(R)-8-(8-((3-(trifluoromethyl)pyridin-4-yl)thio)-[1,2,4]triazolo[1,5-c]pyrimidin-5-yl)-8-azaspiro[4.5]decan-1-amine]	1 to 10	–
CN(C)c1nccc(Sc2cnc(N3CCC4(CCC[C@H]4N)CC3)n3cnnc23)c1Cl [(R)-8-(8-((3-chloro-2-(dimethylamino)pyridin-4-yl)thio)-[1,2,4]triazolo[4,3-c]pyrimidin-5-yl)-8-azaspiro[4.5]decan-1-amine]	0.1 to 1	–
Nc1ccc(Sc2cnc(N3CCC4(CCC[C@H]4N)CC3)n3cnnc23)cc1 [(R)-8-(8-((4-aminophenyl)thio)-[1,2,4]triazolo[4,3-c]pyrimidin-5-yl)-8-azaspiro[4.5]decan-1-amine]	1 to 10	–
N[C@@H]1CCCC12CCN(c1ncc(Sc3ccc(Cl)cc3)c3nncn13)CC2 [(R)-8-(8-((4-chlorophenyl)thio)-[1,2,4]triazolo[4,3-c]pyrimidin-5-yl)-8-azaspiro[4.5]decan-1-amine]	1 to 10	–
Nc1ccc(Sc2cnc(N3CCC4(CCC[C@H]4N)CC3)n3ncnc23)c(Cl)n1 [(R)-8-(8-((6-amino-2-chloropyridin-3-yl)thio)-[1,2,4]triazolo[1,5-c]pyrimidin-5-yl)-8-azaspiro[4.5]decan-1-amine]	1 to 10	–
Nc1ccc(Sc2cnc(N3CCC4(CCC[C@H]4N)CC3)n3ccnc23)c(Cl)n1 [(R)-8-(8-((6-amino-2-chloropyridin-3-yl)thio)imidazo[1,2-c]pyrimidin-5-yl)-8-azaspiro[4.5]decan-1-amine]	< 0.1	–
N[C@@H]1CCCC12CCN(c1ncc(Sc3cccc4ncsc34)c3nccn13)CC2 [(R)-8-(8-(benzo[d]thiazol-7-ylthio)imidazo[1,2-c]pyrimidin-5-yl)-8-azaspiro[4.5]decan-1-amine]	0.1 to 1	–
N[C@@H]1CCCC12CCN(c1ncc(Sc3ccccc3)c3ncnn13)CC2 [(R)-8-(8-(phenylthio)-[1,2,4]triazolo[1,5-c]pyrimidin-5-yl)-8-azaspiro[4.5]decan-1-amine]	1 to 10	–
N[C@@H]1CCCC12CCN(c1ncc(Sc3ccccc3)c3nncn13)CC2 [(R)-8-(8-(phenylthio)-[1,2,4]triazolo[4,3-c]pyrimidin-5-yl)-8-azaspiro[4.5]decan-1-amine]	1 to 10	–
N[C@@H]1CCCC12CCN(c1ncc(Sc3ccccn3)c3nncn13)CC2 [(R)-8-(8-(pyridin-2-ylthio)-[1,2,4]triazolo[4,3-c]pyrimidin-5-yl)-8-azaspiro[4.5]decan-1-amine]	1 to 10	–
N[C@@H]1CCCC12CCN(c1ncc(Sc3cccnc3)c3ncnn13)CC2 [(R)-8-(8-(pyridin-3-ylthio)-[1,2,4]triazolo[1,5-c]pyrimidin-5-yl)-8-azaspiro[4.5]decan-1-amine]	1 to 10	–
N[C@@H]1CCCC12CCN(c1ncc(Sc3ccnc4ccccc34)c3nncn13)CC2 [(R)-8-(8-(quinolin-4-ylthio)-[1,2,4]triazolo[4,3-c]pyrimidin-5-yl)-8-azaspiro[4.5]decan-1-amine]	< 0.1	–
CC(=O)Nc1ccc(Sc2cnc(N3CCC4(CCC[C@H]4N)CC3)n3cnnc23)cc1 [(R)-N-(4-((5-(1-amino-8-azaspiro[4.5]decan-8-yl)-[1,2,4]triazolo[4,3-c]pyrimidin-8-yl)thio)phenyl)acetamide]	1 to 10	–
N[C@H]1CCC12CCN(c1ncc(Sc3cccc(Cl)c3Cl)c3nncn13)CC2 [(S)-7-(8-((2,3-dichlorophenyl)thio)-[1,2,4]triazolo[4,3-c]pyrimidin-5-yl)-7-azaspiro[3.5]nonan-1-amine]	1 to 10	–
N[C@H]1CCCC12CCN(c1ncc(Sc3cccc(Cl)c3Cl)c3nncn13)CC2 [(S)-8-(8-((2,3-dichlorophenyl)thio)-[1,2,4]triazolo[4,3-c]pyrimidin-5-yl)-8-azaspiro[4.5]decan-1-amine]	1 to 10	–
Cc1nccc(Sc2cnc(N3CCC4(CC3)COC[C@H]4N)n3ncnc23)c1Cl [(S)-8-(8-((3-chloro-2-methylpyridin-4-yl)thio)-[1,2,4]triazolo[1,5-c]pyrimidin-5-yl)-2-oxa-8-azaspiro[4.5]decan-4-amine]	1 to 10	–
Cc1nccc(Sc2cnc(N3CCC4(CC3)COC[C@H]4N)n3cnnc23)c1Cl [(S)-8-(8-((3-chloro-2-methylpyridin-4-yl)thio)-[1,2,4]triazolo[4,3-c]pyrimidin-5-yl)-2-oxa-8-azaspiro[4.5]decan-4-amine]	–	0.1 to 1
COC(=O)c1ccccc1Sc1cnc(N2CCC3(CCC[C@H]3N)CC2)n2cnnc12 [Methyl (R)-2-((5-(1-amino-8-azaspiro[4.5]decan-8-yl)-[1,2,4]triazolo[4,3-c]pyrimidin-8-yl)thio)benzoate]	1 to 10	–
COC(=O)CCSc1cnc(N2CCC3(CCC[C@H]3N)CC2)n2cnnc12 [Methyl (R)-3-((5-(1-amino-8-azaspiro[4.5]decan-8-yl)-[1,2,4]triazolo[4,3-c]pyrimidin-8-yl)thio)propionate]	1 to 10	–
